Where two headings read alike, the source gives them in different places. Square brackets hold non-standard residues; d marks the D form. Peptide text beside a SMILES is read from it. * marks the point of attachment. Hydrocinnamoyl = O=C(CCc1ccccc1)*; Tic = O=C(O)[C@@H]1Cc2ccccc2CN1; NMeL = CN[C@@H](CC(C)C)C(=O)O
Molecular target: T1, human Chemokine like receptor 1 (Homo sapiens, UniProt Q99788)
T1 construct: host or cells: U2OS (Tango CMKLR1-bla U2OS)
T1 sequence (Q99788 1-373): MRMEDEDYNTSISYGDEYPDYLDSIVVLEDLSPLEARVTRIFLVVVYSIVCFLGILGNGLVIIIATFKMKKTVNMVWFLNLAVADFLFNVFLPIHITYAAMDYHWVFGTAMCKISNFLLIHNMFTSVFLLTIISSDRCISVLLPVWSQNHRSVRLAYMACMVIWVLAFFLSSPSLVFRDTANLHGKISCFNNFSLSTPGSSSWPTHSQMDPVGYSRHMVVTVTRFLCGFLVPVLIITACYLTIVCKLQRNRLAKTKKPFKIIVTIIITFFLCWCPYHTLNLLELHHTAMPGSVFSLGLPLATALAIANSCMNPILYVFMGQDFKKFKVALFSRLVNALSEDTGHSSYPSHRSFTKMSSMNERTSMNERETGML
Assay: Activation of Tango CMKLR1-bla U2OS cells (beta-lactamase FRET reporter)
Assay type: cell-based
Conditions: read-out: EC50
Outline: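 Agonist mode in Tango CMKLR1-bla U2OS cells, 10000 cells/well seeded overnight, then 10-point 3-fold compound dilutions from 10 mM DMSO stock applied for 4 h at 37 °C, 5% CO2. Beta-lactamase reporter read with CCF4-AM FRET substrate; peptide (D-Tyr)-Phe-Leu-Pro-(D-Ser)-Gln-Phe-(D-Ala)-Tic-Ser served as positive control.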

EC50 (determination by the method of Effect Embodiment 1) | EC50 (Tango CMKLR1-bla U2OS cells, 4 hours incubation, four-parameter fit of activation rate) | Compound
2 nM |  | CC(C)C[C@@H](C(=O)N1CCC[C@H]1C(=O)N[C@H](CO)C(=O)N[C@@H](CCC(N)=O)C(=O)N[C@@H](Cc1ccccc1)C(=O)N[C@H](C)C(=O)N1Cc2ccccc2C[C@H]1C(=O)N[C@@H](CO)C(=O)O)N(C)C(=O)[C@H](Cc1ccccc1)NC(=O)[C@@H](Cc1ccc(O)cc1)NC(=O)CCc1ccccc1 [YW-111, 3-phenylpropanoyl-(D-Tyr)-Phe-(NMe-Leu)-Pro-(D-Ser)-Gln-Phe-(D-Ala)-Tic-Ser-OH] (Hydrocinnamoyl-[dY]F[NMeL]P[dS]QF[dA][Tic]S-OH)
 | 19 nM | CC(C)C[C@H](NC(=O)[C@H](Cc1ccccc1)NC(=O)[C@H](N)Cc1ccc(O)cc1)C(=O)N1CCC[C@H]1C(=O)N[C@H](CO)C(=O)N[C@@H](CCC(N)=O)C(=O)N[C@@H](Cc1ccccc1)C(=O)N[C@H](C)C(=O)N1Cc2ccccc2C[C@H]1C(=O)N[C@@H](CO)C(=O)O [YW-3, (D-Tyr)-Phe-Leu-Pro-(D-Ser)-Gln-Phe-(D-Ala)-Tic-Ser, reference compound] (H-[dY]FLP[dS]QF[dA][Tic]S-OH)

Reference: patent US12129312B2, “Peptide compound, application thereof and composition containing same” (priority 2017, dated 2024)
